In this data set the test system is OsACCase gene. Nature of the data set: Base editing (pZRH-PBE + individual sgRNAs) of OsACCase functional domain in transgenic M0 rice plants. In kind it is in vivo. Particulars: for Frequency of indel (%) / Frequency of substitution (%) / No. of WT / No. of indel / No. of substitution: transgenic M0 plants; for No. of WT / No. of indel / No. of substitution: per sgRNA target. The source says: For individual cloning, the following method is used. APOBEC1, partial nCas9 and UGI sequences (SEQ ID NO: 129) without BsaI were synthesized commercially (GenScript, Nanjing, China) and cloned into the pUC57 (SEQ ID NO: 130) as intermediate vector. […] The full length APOBEC1-nCas9-UGI was excised using XmaJI and SacI, then was subcloned into pHUE411 that had been digested using the same two enzymes. The resultant vector pZRH-PBE (SEQ ID NO: 133) was used to construct sgRNA expression plasmids using restriction enzyme site BsaI.

[1] abbreviates: edited allele with the substitution of the same table line.

For “R2: sgRNA in pZRH-PBE; OsACCase target site CCGGTGCATACAGCGTCTTGACC (SEQ ID NO: 8) (expressed or natural sequence; target site or template, no part of the molecule)”, the “Frequency of indel (%)” value was 0%, the “Frequency of substitution (%)” value amounted to 80%, the “No. of WT” value came to 5 and the No. of indel is listed as 0. Also, the No. of substitution came out at 20. In addition, the No. of alleles (unedited target site sequence) is recorded as 6.

As to “R4: sgRNA in pZRH-PBE; OsACCase target site TCTGCACTGAACAAGCTTCTTGG (SEQ ID NO: 11) (expressed or natural sequence; target site or template, no part of the molecule)”, the “Frequency of indel (%)” value is reported as 3.1%, the “Frequency of substitution (%)” value was found to be 31.3%, the “No. of WT” value is reported as 24 and the No. of indel is reported as 2. Moreover, the No. of substitution is given as 6. Besides, the No. of alleles (unedited target site sequence) was 6.

As for “R5: sgRNA in pZRH-PBE; OsACCase target site CCACATGCAGTTGGGTGGTCCCA (SEQ ID NO: 15) (expressed or natural sequence; target site or template, no part of the molecule)”, the “Frequency of indel (%)” value is given as 0.0%, the “Frequency of substitution (%)” value came out at 65.4%, the “No. of WT” value came out at 18 and the No. of indel is on record as 0. In addition, the No. of substitution is reported as 34. Under “unedited target site sequence”, the No. of alleles stood at 12.

On to “R6: sgRNA in pZRH-PBE; OsACCase target site CCATCTTACTGTTTCAGATGACC (SEQ ID NO: 22) (expressed or natural sequence; target site or template, no part of the molecule)”, for which the “Frequency of indel (%)” value came to 14.3%, the “Frequency of substitution (%)” value is on record as 19%, the “No. of WT” value is 14 and the No. of indel stood at 3. Moreover, the No. of substitution was determined as 4. Also, the No. of alleles (unedited target site sequence) turned out to be 2.

As to “R7: sgRNA in pZRH-PBE; OsACCase target site CCCTGCTGACCCTGGTCAGCTTG (SEQ ID NO: 27) (expressed or natural sequence; target site or template, no part of the molecule)”, the “Frequency of indel (%)” value turned out to be 5.9%, the “Frequency of substitution (%)” value is 58.8%, the “No. of WT” value worked out at 6 and the No. of indel was determined as 1. Moreover, the No. of substitution came out at 10. For the same substance, the No. of alleles under setting [1] amounted to 1. Besides, the No. of alleles (unedited target site sequence) is listed as 4.

With “R8: sgRNA in pZRH-PBE; OsACCase target site TTCCTCGTGCTGGACAAGTGTGG (SEQ ID NO: 32) (expressed or natural sequence; target site or template, no part of the molecule)”, the “Frequency of indel (%)” value came out at 10.5%, the “Frequency of substitution (%)” value was found to be 59.6%, the “No. of WT” value turned out to be 17 and the No. of indel is 6. The No. of substitution is listed as 34. For the same substance, the No. of alleles (unedited target site sequence) is recorded as 9.

In the case of “R17: sgRNA in pZRH-PBE; OsACCase target site GGAGCTTATCTTGCTCGACTTGG (SEQ ID NO: 64) (expressed or natural sequence; target site or template, no part of the molecule)”, the “Frequency of indel (%)” value was found to be 4.8%, the “Frequency of substitution (%)” value came out at 42.9%, the “No. of WT” value is 22 and the No. of indel is reported as 2. In addition, the No. of substitution is 18. Also, the No. of alleles (unedited target site sequence) amounted to 16.

As for “R18: sgRNA in pZRH-PBE; OsACCase target site CCGCAAGGGTTAATTGAGATCAA (SEQ ID NO: 68) (expressed or natural sequence; target site or template, no part of the molecule)”, the “Frequency of indel (%)” value came to 13.0%, the “Frequency of substitution (%)” value was 60.9%, the “No. of WT” value turned out to be 6 and the No. of indel turned out to be 3. Also, the No. of substitution is on record as 14. Also, the No. of alleles (unedited target site sequence) was found to be 7.

For the substance “R19: sgRNA in pZRH-PBE; OsACCase target site TGCTTATTCTAGGGCATATAAGG (SEQ ID NO: 71) (expressed or natural sequence; target site or template, no part of the molecule)”, the “Frequency of indel (%)” value came to 0.0%, the “Frequency of substitution (%)” value was 6.9%, the “No. of WT” value is recorded as 27 and the No. of indel amounted to 0. Besides, the No. of substitution was found to be 2. Besides, under setting [1], the No. of alleles worked out at 1. Besides, the No. of alleles (unedited target site sequence) is given as 1.

For the substance “R20: sgRNA in pZRH-PBE; OsACCase target site TTTACACTTACATTTGTGACTGG (SEQ ID NO: 73) (expressed or natural sequence; the letters are possibly those of the target site)”, the “Frequency of indel (%)” value is reported as 0.0%, the “Frequency of substitution (%)” value stood at 16.7%, the “No. of WT” value is reported as 11 and the No. of indel is recorded as 0. Besides, the No. of substitution came out at 2. In addition, the No. of alleles under setting [1] was 1. Further, where the note is “unedited target site sequence”, the No. of alleles was 2.

Regarding “R21: sgRNA in pZRH-PBE; OsACCase target site AGCTCCCACATGCAGTTGGGTGG (SEQ ID NO: 76) (expressed or natural sequence; target site or template, no part of the molecule)”, the “Frequency of indel (%)” value stood at 9.5%, the “Frequency of substitution (%)” value is 23.8%, the “No. of WT” value is 14 and the No. of indel is listed as 2. Further, the No. of substitution was determined as 5. The No. of alleles (edited allele with the substitution of the same table line, edited allele (SEQ ID NO: 77)) stood at 2. Also, the No. of alleles (edited allele with the substitution of the same table line, edited allele (SEQ ID NO: 78)) was 4. In addition, the No. of alleles (unedited target site sequence) came out at 4.

Consider “R22: sgRNA in pZRH-PBE; OsACCase target site ACTGTTTCAGATGACCTTGAAGG (SEQ ID NO: 79) (expressed or natural sequence; the letters are possibly those of the target site)”, for which the “Frequency of indel (%)” value is given as 0.0%, the “Frequency of substitution (%)” value amounted to 18.8%, the “No. of WT” value was 13 and the No. of indel was found to be 0. Besides, the No. of substitution was 3. The No. of alleles under setting [1] was determined as 4. For the same substance, the No. of alleles (unedited target site sequence) is on record as 2.

On to “R23: sgRNA in pZRH-PBE; OsACCase target site GCGTTTCTAATATATTGAGGTGG (SEQ ID NO: 81) (expressed or natural sequence; target site or template, no part of the molecule)”, for which the “Frequency of indel (%)” value was 0.0%, the “Frequency of substitution (%)” value is listed as 22.2%, the “No. of WT” value turned out to be 21 and the No. of indel is reported as 0. The No. of substitution amounted to 6. Moreover, the No. of alleles under setting [1] came to 9. The No. of alleles (unedited target site sequence) worked out at 3.

Take “R24: sgRNA in pZRH-PBE; OsACCase target site TATGTTCCTGCCTACATTGGTGG (SEQ ID NO: 83) (expressed or natural sequence; target site or template, no part of the molecule)”: the “Frequency of indel (%)” value is on record as 14.3%, the “Frequency of substitution (%)” value was 9.5%, the “No. of WT” value stood at 16 and the No. of indel is given as 3. For the same substance, the No. of substitution is given as 2. In addition, the No. of alleles under setting [1] is listed as 2. In addition, the No. of alleles (unedited target site sequence) came out at 2.

Regarding “R25: sgRNA in pZRH-PBE; OsACCase target site ACTTCCAGTAACAACACCGTTGG (SEQ ID NO: 85) (expressed or natural sequence; the letters are possibly those of the target site)”, the “Frequency of indel (%)” value was found to be 0.0%, the “Frequency of substitution (%)” value is recorded as 40.0%, the “No. of WT” value is recorded as 3 and the No. of indel turned out to be 0. Further, the No. of substitution amounted to 2. For the same substance, the No. of alleles (edited allele with the substitution of the same table line, edited allele (SEQ ID NO: 86)) worked out at 2. For the same substance, for the setting “edited allele with the substitution of the same table line, edited allele (SEQ ID NO: 87)”, the No. of alleles is 1. Further, under “unedited target site sequence”, the No. of alleles is reported as 1.

For “R26: sgRNA in pZRH-PBE; OsACCase target site AACAACACCGTTGGACCCACCGG (SEQ ID NO: 88) (expressed or natural sequence; target site or template, no part of the molecule)”, the “Frequency of indel (%)” value turned out to be 0.0%, the “Frequency of substitution (%)” value was 71.4%, the “No. of WT” value was determined as 2 and the No. of indel was 0. Further, the No. of substitution worked out at 5. Further, under setting [1], the No. of alleles is reported as 4. Under “unedited target site sequence”, the No. of alleles worked out at 4.

For “R27: sgRNA in pZRH-PBE; OsACCase target site GAACTCGTGTGATCCTCGAGCGG (SEQ ID NO: 90) (chemistry not fully specified; the letters are possibly those of the target site)”, the “Frequency of indel (%)” value is reported as 0.0%, the “Frequency of substitution (%)” value worked out at 15.4%, the “No. of WT” value is 11 and the No. of indel came out at 0. In addition, the No. of substitution is given as 2. Moreover, the No. of alleles under setting [1] is given as 3. Further, the No. of alleles (unedited target site sequence) is listed as 1.

The values are drawn from US12612622B2, “Targeted mutagenesis using base editors” (Qi Biodesign Biotechnology Company Limited, priority 2018, dated 2026).
